Read-outs that look alike come from different tables or passages of the source.
Key:
[1] = test system: MCF-7; assay: Anti-proliferative activity, SRB colorimetric assay; type: cell-based; conditions: for IC50: Homo sapiens, MCF7, MCF-7 cancer cell line, SRB assay, read-out: Cell lines (IC50 μM) MCF-7
Method: (§1) The antitumor activities of the newly synthesized derivatives against two cancer cell lines (HepG-2 and MCF-7). Both cell lines were purchased from ATCC (American Type Culture Collection) via the holding company for biological products and vaccines (VACSERA, Cairo, Egypt). The cytotoxicity was assessed using the SRB colorimetric assay.[47]

[2] = test system: HepG-2; assay: as above; type: cell-based; conditions: for IC50: HepG-2 cancer cell line, SRB assay, read-out: Cell lines (IC50 μM) HepG-2
Method: as §1

[3] = test system: C. albicans; assay: Antifungal activity, inhibition zone approach; type: cell-based, Candida albicans; conditions: for C. albicans Diameter of inhibition zone (mm): Fungi; for C. albicans % Activity index: ketoconazole = 100; for antimicrobial activity with C. albicans, in words: authors' grading of Table 2 values, key not given
[4] = test system: B. subtilis; assay: Antibacterial activity, inhibition zone approach; type: cell-based, Bacillus subtilis; conditions: for B. subtilis Diameter of inhibition zone (mm): Gram-positive bacteria; for antimicrobial activity with B. subtilis, in words: authors' grading of Table 2 values, key not given; for B. subtilis % Activity index: gentamicin = 100
[5] = test system: E. coli; assay: Antibacterial activity, inhibition zone approach; type: cell-based, Escherichia coli; conditions: for E. coli Diameter of inhibition zone (mm): Gram-negative bacteria; for antimicrobial activity with E. coli, in words: authors' grading of Table 2 values, key not given; for E. coli % Activity index: gentamicin = 100
[6] = test system: S. aureus; assay: Antibacterial activity, inhibition zone approach; type: cell-based, Staphylococcus aureus; conditions: for S. aureus Diameter of inhibition zone (mm): Gram-positive bacteria; for antimicrobial activity with S. aureus, in words: authors' grading of Table 2 values, key not given; for S. aureus % Activity index: gentamicin = 100
[7] = test system: P. aeuroginosa; assay: Antibacterial activity, inhibition zone approach; type: cell-based, Pseudomonas aeuroginosa; conditions: for P. aeuroginosa Diameter of inhibition zone (mm): Gram-negative bacteria; for antimicrobial activity with P. aeuroginosa, in words: authors' grading of Table 2 values, key not given; for P. aeuroginosa % Activity index: gentamicin = 100
[8] = test system: A. flavus; assay: Antifungal activity, inhibition zone approach; type: cell-based, Aspergillus flavus; conditions: for A. flavus Diameter of inhibition zone (mm): Fungi; for antimicrobial activity with A. flavus, in words: authors' grading of Table 2 values, key not given; for A. flavus % Activity index: ketoconazole = 100
[9] = authors' grading of Table 1 values, key not given

Compound | IC50 [1] [µM] | IC50 ([2]; Homo sapiens, HepG2) [µM] | C. albicans Diameter of inhibition zone (mm) [3] [mm] | C. albicans % Activity index [3] [%] | melting point [°C] | B. subtilis Diameter of inhibition zone (mm) [4] [mm] | E. coli Diameter of inhibition zone (mm) [5] [mm] | S. aureus Diameter of inhibition zone (mm) [6] [mm] | P. aeuroginosa Diameter of inhibition zone (mm) [7] [mm] | A. flavus Diameter of inhibition zone (mm) [8] [mm] | B. subtilis % Activity index [4] [%] | P. aeuroginosa % Activity index [7] [%] | A. flavus % Activity index [8] [%] | further results
O=C(/C=C/c1cccs1)c1ccc(O)cc1 [1a, (E)-1-(4-hydroxyphenyl)-3-(thiophen-2-yl)prop-2-en-1-one] | 82.5 ± 4.2 | 87.6 ± 4.2 | 3 | 10.7 |  |  |  |  |  |  |  |  |  | 
O=C(/C=C/c1cccs1)c1ccc(Cl)c(Cl)c1 [1b, (E)-1-(3,4-dichlorophenyl)-3-(thiophen-2-yl)prop-2-en-1-one] | > 100 | 84.2 ± 4.2 |  |  | 85 |  |  |  |  |  |  |  |  | 
N#Cc1c(-c2cccs2)cc(-c2ccc(Cl)c(Cl)c2)nc1N [2b, 2-Amino-6-(3,4-dichlorophenyl)-4-(thiophen-2-yl)nicotinonitrile] | 55.5 ± 3.2 | 59.5 ± 3.1 | 17 |  |  | 14 | 8 | 9 | 11 | 10 |  |  |  | antimicrobial activity with B. subtilis, in words [4]: strong; antimicrobial activity with E. coli, in words [5]: moderate; antimicrobial activity with S. aureus, in words [6]: moderate; antimicrobial activity with P. aeuroginosa, in words [7]: strong; antimicrobial activity with C. albicans, in words [3]: strong; antimicrobial activity with A. flavus, in words [8]: moderate
CC(=O)c1c(-c2cccs2)cc(-c2ccc(O)cc2)[nH]c1=O [3a, 3-Acetyl-6-(4-hydroxyphenyl)-4-(thiophen-2-yl)pyridin-2(1H)-one] | 48.4 ± 2.7 | 53.2 ± 3.1 | 11 | 39.3 | 220 | 9 | 4 | 5 | 6 | 10 | 40.9 | 31.6 | 38.5 | anti-proliferative activity against MCF-7, in words [1, 9]: moderate; E. coli % Activity index [5]: 19.0%; anti-proliferative activity against HepG-2, in words [2, 9]: moderate; S. aureus % Activity index [6]: 27.8%
CC(=O)N1N=C(c2ccc(Cl)c(Cl)c2)CC1c1cccs1 (stereo not shown) [8b, 1-(3-(3,4-dichlorophenyl)-5-(thiophen-2-yl)-4,5-dihydro-1H-pyrazol-1-yl)ethan-1-one] | 72.6 ± 3.9 | 74.3 ± 3.5 | 9 | 32.1 | 160 | 7 |  | 3 | 4 | 5 | 31.8 | 21.0 | 19.2 | S. aureus % Activity index [6]: 16.7%
Clc1ccc(C2=NN(c3ccccc3)C(c3cccs3)C2)cc1Cl (stereo not shown) [9b, 3-(3,4-dichlorophenyl)-1-phenyl-5-(thiophen-2-yl)-4,5-dihydro-1H-pyrazole] | 67.3 ± 3.7 | 48.1 ± 2.7 | 8 | 28.6 | 130 | 6 |  |  |  | 3 | 27.3 |  | 11.5 | 
Nc1nc(-c2ccc(O)cc2)cc(-c2cccs2)n1 [11a, 4-(2-amino-6-(thiophen-2-yl)pyrimidin-4-yl)phenol] | 61.1 ± 3.4 | 52.9 ± 2.9 | 11 |  |  | 10 | 6 | 7 | 11 | 7 |  |  |  | antimicrobial activity with B. subtilis, in words [4]: moderate; antimicrobial activity with E. coli, in words [5]: very strong; antimicrobial activity with S. aureus, in words [6]: moderate; antimicrobial activity with P. aeuroginosa, in words [7]: moderate; antimicrobial activity with C. albicans, in words [3]: moderate; antimicrobial activity with A. flavus, in words [8]: weak
Oc1ccc(-c2cc(-c3cccs3)n(-c3nc4nc5ccccc5nc4s3)n2)cc1 [12a, 4-(1-(thiazolo[4,5-b]quinoxalin-2-yl)-5-(thiophen-2-yl)-1H-pyrazol-3-yl)phenol] | 65 ± 3.6 | 74.7 ± 3.9 | 6 | 21.4 | 250 to 252 | 5 |  |  | 3 |  | 22.7 | 15.8 |  | 
Oc1ccc(C2=NN(C(=S)Nc3ccccc3)C(c3cccs3)C2)cc1 (stereo not shown) [14a, 3-(4-hydroxyphenyl)-N-phenyl-5-(thiophen-2-yl)-4,5-dihydro-1H-pyrazole-1-carbothioamide] |  |  |  |  | 245 to 247 |  |  |  |  |  |  |  |  | 
COc1cccc2c1C(=O)c1c(O)c3c(c(O)c1C2=O)C[C@@](O)(C(=O)CO)C[C@@H]3O[C@H]1C[C@H](N)[C@H](O)[C@H](C)O1 [DOX, reference compound] |  |  |  |  |  |  |  |  |  |  |  |  |  | IC50 [2]: 4.5 ± 0.2 µM
CNC(C)C1CCC(N)C(OC2C(N)CC(N)C(OC3OCC(C)(O)C(NC)C3O)C2O)O1 (stereo not shown) [Gentamicin, reference compound] |  |  |  |  |  | 22 | 21 | 18 | 19 |  | 100 | 100 |  | E. coli % Activity index [5]: 100%; S. aureus % Activity index [6]: 100%
CC(=O)N1CCN(c2ccc(OCC3COC(Cn4ccnc4)(c4ccc(Cl)cc4Cl)O3)cc2)CC1 (stereo not shown) [Ketoconazole, reference compound] |  |  | 28 | 100 |  |  |  |  |  | 26 |  |  | 100 | 

Reference: PMC10112504, “Novel 4-thiophenyl-pyrazole, pyridine, and pyrimidine derivatives as potential antitumor candidates targeting both EGFR and VEGFR-2; design, synthesis, biological evaluations, and in silico studies” (RSC Advances, 2023)
